From patent US20240165196A1, “Beta-Lactamase Inhibitors” (VIB VZW, priority 2021, published 2024)

Key:
Assay type in all cases: cell-based
[1] = system: human erythrocytes
Text: FIGS. 4A-4K. […] IV—Intravenous, IP—Intraperitoneal, SC—Subcutaneously. The data shown is from a single experiment with 4 animals per group. […] (ns—non significant, #—P>0.05, *—P≤0.05, ***—P≤0.01, ****—P≤0.001). (FIG. 4G) FICI plot as in FIG. 2, for the E. coli strains indicated and the combination of penicillin and the TEM3.2 peptide. […] (FIG. 4J) Same as FIG. 4H for peptide BGAL. (FIG. 4K) Same as FIG. 4H for peptide P33.
Given this broad activity on clinical isolates, we wondered if the TEM3.2 peptide could be used to re-sensitize bacteria to ampicillin treatment in vivo, in a mouse Urinary Tract Infection (UTI) model.
EDTA was used as the anticoagulant. […] Plate centrifuged for 10 min at 3000×g. […] Erythrocytes in 1% Triton and maximum used concentration of buffer were used as the control of 100% and 0% hemolysis, respectively.

[2] = system: E. coli clinical isolate, β-lactamase TEM-ESBL; CTX-M-TYPE; test: MIC of ampicillin without/with 30 μg/mL TEM3.2, clinical isolates; settings: isolate 2017 France, IAI, Peritoneal Fluid
Description: (§1) Moreover, the core sequence of peptide TEM3.0 also occurs in the structurally related SHV β-lactamase (FIG. 2E). Although the C-terminal extension residues H and N have been replaced with physicochemically similar R and Q, respectively (FIG. 2H). […] To quantify the synergy between these four peptides and penicillin G, we performed a so-called checkerboard assay, which allows to compare the activity of two test compounds co-incubated (here peptide and a beta-lactam antibiotic), to their individual activities in isolation. The result from the assay is quantified as the Fractional Inhibitory Concentration Index (FICI), and it is generally accepted that values below 0.5 indicate synergistic effects between the compounds. As a control, we generated a peptide using the same design, but based on a previously identified APR from the β-galactosidase enzyme (BGAL)^16 from E. coli (APR=SVIIWSL, peptide sequence=[…]) that has a MIC value>100 μg/mL on E. coli strain UZ_TEM104. We evaluated the synergy of the peptides with penicillin G in clinical E. coli isolates carrying the TEM (FIG. 2I) or SHV enzymes (FIG. 2J). […] As a further control, we also performed a checkerboard assay with an E. coli strain that was resistant to the aminoglycoside kanamycin and observed no synergy between this unrelated antibiotic and our peptides (FIG. 2L), in line with the notion that we are inhibiting a beta-lactamase but not the aminoglycoside degrading enzyme. […] The list of strains included some that harbored only TEM or SHV, but others contained additional Ambler Class A (CTX-M or OXA) or Class B (VIM and NDM) beta-lactamases. […] In contrast, the presence of the NDM-type […], that does have a high affinity for Ampicillin and that is completely distinct in sequence and structure from TEM and SHV, seemed to completely prevent the effect of the peptide on the beta-lactam sensitivity of the strains in which it occurred (see also further). As it appeared that TEM3.2 had activity in most isolates tested, we decided to focus further analysis on this peptide. Furthermore, we tested the performance of the TEM3.2 peptide in a checkerboard assay on strains carrying ESBL mutants of TEM, i.e. extended-spectrum mutations that cluster around the active site of the enzyme, and not in the aggregation prone region targeted by the peptide, and as expected from our mode of action, we observed synergy with ampicillin on these strains (FIG. 2M).
(§2) Determination of MIC values using the broth microdilution in the 96-well plate (BD Biosciences, Belgium) according to the EUCAST guideline, which was performed in 96-well polystyrene flat bottom microtiter plates (BD Biosciences). Briefly, a single colony was inoculated into 5 mL Difco™ Mueller Hinton Broth (BD Biosciences Ref 275730) and grown to the end-exponential growth phase in a shaking incubator at 37° C. Cultures were subsequently diluted to an MacFarland (0.5 optical density) then the culture was diluted to reach 10^6 CFU/mL in fresh MHB medium. 50 μl of different concentration of peptides ranging from 128 to 2 μg/mL were serially diluted to the sterile 96-well plate in MHB. 50 μL of the diluted bacteria in MHB were pipetted into 96-well plates to reach the final volume of 100 μL. The bacteria grown with the maximum concentration of carrier and medium were considered as positive and negative controls, respectively. The plates were statically incubated overnight at 37° C. to allow bacterial growth. OD was measured at 590 nm a multipurpose ultraviolet-visible plate reader, and the absorbance of the growth bacteria was measured using absorbance reader. Bacterial growth was also visually inspected and agreed well with the OD reading.

[3] = system: E. coli clinical isolate, β-lactamase TEM-1; test: as above; settings: isolates year NA, country NA
Description: as §1, §2

[4] = system: E. coli clinical isolate, β-lactamase TEM-ESBL; test: as above
Description: as §1, §2

[5] = system: E. coli clinical isolate, β-lactamase SHV-2; CTX-M-55; VIM-1; test: as above; settings: isolate 2017 Turkey, UTI, Urine
Description: as §1, §2

[6] = system: E. coli clinical isolate, β-lactamase TEM-ESBL; CTX-M-15; NDM-5; test: as above; settings: isolate 2017 Qatar, UTI, Urine
Description: as §1, §2

[7] = system: E. coli clinical isolate, β-lactamase TEM-ESBL; CTX-M-15; NDM-19; test: as above; settings: isolate 2017 Qatar, IAI, Abscess
Description: as §1, §2

[8] = system: E. coli clinical isolate, β-lactamase TEM-ESBL; CTX-M-27; test: as above; settings: isolate 2017 Romania, UTI, Urine
Description: as §1, §2

[9] = system: E. coli clinical isolate, β-lactamase TEM-ESBL; CTX-M-24; OXA-48; test: as above; settings: isolate 2017 Turkey, IAI, Abscess
Description: as §1, §2

[10] = system: E. coli clinical isolate, β-lactamase SHV-12; TEM-ESBL; test: as above; settings: isolate 2017 Germany, RTI, Bronchi
Description: as §1, §2

Ac-RLTAFLHNRRPRLTAFLRQRR-NH2 [TEM3.2]
hemolysis of human erythrocytes [1]: not hemolytic | MIC ampicillin + 30 μg/mL TEM-3.2 [2]: ≤0.06 | MIC ampicillin + 30 μg/mL TEM-3.2 [3]: ≤0.06 | MIC ampicillin + 30 μg/mL TEM-3.2 ([4]; isolate 2016 Germany, UTI, Urine): ≤0.06 | MIC ampicillin + 30 μg/mL TEM-3.2 ([4]; isolate 2016 Lithuania, UTI, Urine): 1 | MIC ampicillin + 30 μg/mL TEM-3.2 ([4]; isolate 2017 Israel, UTI, Urine): ≤0.06 | MIC ampicillin + 30 μg/mL TEM-3.2 ([4]; isolate 2017 Portugal, RTI, Bronchi): 0.5 | MIC ampicillin + 30 μg/mL TEM-3.2 ([4]; isolates 2016 South Africa, IAI, Peritoneal Fluid): ≤0.06 | MIC ampicillin + 30 μg/mL TEM-3.2 [5]: ≤0.06 | MIC ampicillin + 30 μg/mL TEM-3.2 [6]: >64 | MIC ampicillin + 30 μg/mL TEM-3.2 [7]: >64 | MIC ampicillin + 30 μg/mL TEM-3.2 [8]: ≤0.06 | MIC ampicillin + 30 μg/mL TEM-3.2 [9]: ≤0.06 | MIC ampicillin + 30 μg/mL TEM-3.2 [10]: 0.12
